According to patent US20120316137A1, “Methods and Compositions for Treating Cancer” (priority 2009, published 2012):

Assays:
[1] = system: Ba/F3 cells expressing native BCR-ABL
Text: Prior to cell proliferation assays, RNA was isolated from each Ba/F3 cell line, and kinase domain mutations were confirmed by RT-PCR followed by DNA sequence analysis using Mutation Surveyor software (SoftGenetics, State College, Pa.).

[2] = system: Phospho-Erk1/2 in SNU16 cells; assay: Western immunoblotting; conditions: Homo sapiens, SNU-16, read-out: Phospho-Erk1/2 IC50 (nM)
Text: (§2) Cells were lysed in either SDS buffer or Phospho-Safe™ buffer (Novagen, Gibbstown, N.J.) and protein lysates were immunoprecipitated overnight and/or immunoblotted with the indicated antibodies. Protein expression was quantified using Quantity One software (BioRad, Hercules, Calif.).

[3] = system: wtFGFR2 RL95 cells; assay: Cell growth assay (72 h); type: cell-based
Text: (§3) Data are shown as mean (±SD) from 3 separate experiments tested in triplicate.

[4] = system: Phospho-FRS2a in KatoIII cells; assay: Western immunoblotting; conditions: Homo sapiens, KATO III, read-out: Phospho-FRS2a IC50 (nM)
Text: as §2

[5] = system: Phospho-FRS2a in MFE-296 cells; assay: Western immunoblotting; conditions: Homo sapiens, MFE-296, read-out: Phospho-FRS2a IC50 (nM)
Text: (§4) Cells were lysed in either SDS buffer or Phospho-Safe (Novagen, Gibbstown, N.J.) and protein lysates were immunoprecipitated overnight and/or immunoblotted with the indicated antibodies. Protein expression was quantified using Quantity One software (BioRad, Hercules, Calif.).

[6] = system: Phospho-FRS2a in Hec1B cells; assay: Western immunoblotting; conditions: Homo sapiens, HEC-1B, read-out: Phospho-FRS2a IC50 (nM)
Text: as §2, §4

[7] = system: FGFR2-mutant AN3CA tumor xenograft; assay: AN3CA xenograft, compound 1 and ridaforolimus (Example 9); type: in vivo, nude mice
Experimental: (§5) AN3CA cells were implanted into the right flank of nude mice. […] Mean tumor volumes (±SE; tumor volume=L×W^2×0.5) were calculated for each treatment group.

[8] = system: KatoIII gastric cancer cells (FGFR2 Amp/truncate); assay: Cell growth assay (72 h); type: cell-based; conditions: Homo sapiens, KATO III
Text: as §3

[9] = system: AN3CA cells; assay: Soft agar colony formation assay; type: cell-based; conditions: Homo sapiens, AN3-CA, read-out: Soft Agar IC50 (nM)
Experimental: (§1) The soft agar assay was performed using the CytoSelect 96-Well Cell Transformation Assay (Cell Biolabs, San Diego, Calif.). Briefly, cells were resuspended in 0.08% agar and plated on 0.06% agar in 96-well plates. […] Cells were either stained with iodonitrotetrazoliumchloride (Sigma, St. Louis, Mo.) or solubilized and quantified with CyQuant Dye according to the manufacturer's protocol. “ND” indicated not determined.

[10] = system: SNU1 cells; assay: Soft agar colony formation assay; type: cell-based; conditions: Homo sapiens, SNU1, read-out: Soft Agar IC50 (nM)
Experimental: as §1

[11] = system: Hec1B cells; assay: Soft agar colony formation assay; type: cell-based; conditions: Homo sapiens, HEC-1B, read-out: Soft Agar IC50 (nM)
Experimental: as §1

[12] = system: SNU16 cells; assay: Soft agar colony formation assay; type: cell-based; conditions: Homo sapiens, SNU-16, read-out: Soft Agar IC50 (nM)
Experimental: as §1

[13] = system: Phospho-FRS2a in RL95 cells; assay: Western immunoblotting; conditions: read-out: Phospho-FRS2a IC50 (nM)
Text: as §2, §4

[14] = system: Phospho-Erk1/2 in SNU1 cells; assay: Western immunoblotting; conditions: Homo sapiens, SNU1, read-out: Phospho-Erk1/2 IC50 (nM)
Text: as §2

[15] = system: AN3CA endometrial cancer cells with mutant FGFR2 (N549K); assay: cells; conditions: Homo sapiens, AN3-CA, read-out: Cell growth GI50 (nM)
Text: as §3

[16] = system: FLT3-ITD positive primary blasts; assay: Ex vivo viability of primary AML cells (MTS, 72 h); conditions: Homo sapiens, read-out: IC50, viability
[17] = biological target: TRKB (Homo sapiens, UniProt Q16620); assay: Kinase assay (RBC)
[18] = system: MV4-11, Kasumi-1, KG1 and EOL1 cells (panel); assay: Cell viability assay, panel summary; conditions: read-out: IC50 for inhibition of viability of all 4 cell lines
Experimental: (§6) Exponentially growing cell lines were plated into 96-well plates and incubated overnight at 37° C. […] Fluorescence was measured using a Wallac Victor microplate reader (PerkinElmer, Waltham, Mass.). […] Data are shown as mean (1 SD) from 3 separate experiments, each tested in triplicate.

[19] = system: SNU16 gastric cancer cells with amplified FGFR2; assay: cells; conditions: Homo sapiens, SNU-16, read-out: Cell growth GI50 (nM)
Text: as §3

[20] = system: KG1 cells (FGFR1-FGFR1OP2 fusion); assay: Cell growth assay (72 h); type: cell-based; conditions: Homo sapiens, KG-1; KG1; read-out: Cell growth GI50
Text: as §3

[21] = system: Ba/F3 cells expressing BCR-ABL^T315I; assay: Ba/F3 subcutaneous tumor model
[22] = system: Phospho-Erk1/2 in Hec1B cells; assay: Western immunoblotting; conditions: Homo sapiens, HEC-1B, read-out: Phospho-Erk1/2 IC50 (nM)
Text: as §2, §4

[23] = biological target: JAK2 (Homo sapiens, UniProt O60674); assay: Kinase assay (RBC)
[24] = system: MV4-11 cells (FLT3-ITD); assay: Cell viability assay (72 h); conditions: Homo sapiens, MV4-11, 72 h, read-out: Cell viability IC50 (nM)
Experimental: as §6

[25] = system: Kasumi-1 cells (c-KIT N822K); assay: Cell viability assay (72 h); type: cell-based; conditions: Homo sapiens, Kasumi 1, 72 h, read-out: Cell viability IC50 (nM)
Experimental: as §6

[26] = system: FGFR2-driven AN3CA endometrial tumor xenograft; assay: AN3CA subcutaneous xenograft (Example 7); conditions: 30 mg/kg oral daily, 12 days
Experimental: as §5

[27] = system: Phospho-Erk1/2 in MFE-296 cells; assay: Western immunoblotting; conditions: Homo sapiens, MFE-296, read-out: Phospho-Erk1/2 IC50 (nM)
Text: as §4

[28] = system: RS4;11 cells (wt); assay: Cell viability assay (72 h); conditions: Homo sapiens, RS4-11, 72 h, read-out: Cell viability IC50 (nM)
Experimental: as §6

[29] = system: wtFGFR2 SNU1 cells; assay: Cell growth assay (72 h); type: cell-based; conditions: Homo sapiens
Text: as §3

[30] = system: Ba/F3 cells expressing native BCR-ABL; remark: listed apart in the source
Text: At confluency, cells in 24-well plates were collected by centrifugation. DNA was extracted from the cell pellets using a DNEasy Tissue kit (QIAGEN, Inc., Valencia, Calif.). The BCR-ABL kinase domain was amplified using primers B2A (5′ [sequence] 3′) and ABL4317R (5′[sequence] 3′), PCR products were bi-directionally sequenced by a commercial contractor (Agencourt Bioscience Corporation, Beverly, Mass.) using primers ABL3335F (5′[sequence] 3′) and ABL4275R (5′[sequence] 3′), and the chromatograms were analyzed for mutations using Mutation Surveyor software (SoftGenetics, State College, Pa.).

Chain of JAK2 (O60674 849-1124 limits assumed): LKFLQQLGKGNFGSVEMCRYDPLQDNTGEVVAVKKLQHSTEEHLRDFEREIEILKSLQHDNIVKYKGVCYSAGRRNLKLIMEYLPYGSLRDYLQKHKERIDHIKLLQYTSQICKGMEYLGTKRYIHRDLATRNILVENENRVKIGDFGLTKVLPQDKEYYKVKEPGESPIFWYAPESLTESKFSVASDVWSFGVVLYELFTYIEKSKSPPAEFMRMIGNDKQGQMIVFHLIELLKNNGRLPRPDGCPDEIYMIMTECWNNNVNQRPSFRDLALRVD
Chain of TRKB (Q16620 538-807 limits assumed): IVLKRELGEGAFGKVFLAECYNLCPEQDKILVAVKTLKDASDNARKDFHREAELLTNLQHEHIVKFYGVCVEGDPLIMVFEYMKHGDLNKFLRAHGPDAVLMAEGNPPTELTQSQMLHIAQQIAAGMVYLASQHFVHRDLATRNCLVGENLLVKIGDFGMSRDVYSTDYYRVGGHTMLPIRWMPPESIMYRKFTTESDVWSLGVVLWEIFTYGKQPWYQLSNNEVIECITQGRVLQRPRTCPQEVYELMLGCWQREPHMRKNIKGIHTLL

Cc1ccc(C(=O)Nc2ccc(CN3CCN(C)CC3)c(C(F)(F)F)c2)cc1C#Cc1cnc2cccnn12 [Compound 1, 3-(imidazo[1,2-b]pyridazin-3-ylethynyl)-4-methyl-N-(4-((4-methylpiperazin-1-yl)-methyl)-3-(trifluoromethyl)phenyl)benzamide]
differential in sensitivity between cells expressing native BCR-ABL and parental cells [1]: greater than 3000 fold
IC50 [2]: 8 nM
GI50 [3]: 0.428 µM
IC50 [4]: 34 nM
IC50 [5]: 2.7 nM
IC50 [6]: > 1000 nM
TGI (%) ([7]; Compound 1 10 mg/kg alone): 26%
TGI (%) ([7]; Compound 1 30 mg/kg alone): 81%
GI50 [8]: 0.007 µM
IC50 [9]: 23 nM
IC50 [10]: > 1000 nM
IC50 [11]: > 1000 nM
IC50 [12]: 29 nM
IC50 [13]: > 1000 nM
IC50 [14]: > 1000 nM
GI50 [15]: 30 nM
IC50 [16]: 0.004 µM
IC50 [17]: 0.0151 µM
IC50 [18]: 0.0005 to 0.017 µM
GI50 [19]: 42 nM
GI50 [20]: 0.01 µM
% T/C ([21]; 10 mg/kg daily oral): 68%
% T/C ([21]; 30 mg/kg daily oral): 20%
% T/C ([21]; 50 mg/kg daily oral): 0.9%
reduction in mean tumor volume at final measurement compared to start of treatment ([21]; 50 mg/kg daily oral): 96%
levels of phosphorylated BCR-ABL and phosphorylated CrkL in tumors ([21]; single oral dose 30 mg/kg, 6 hr): markedly decreased levels of phosphorylated BCR-ABL and phosphorylated CrkL
IC50 [22]: > 1000 nM
IC50 [23]: 0.169 µM
IC50 [24]: 2 nM
IC50 [25]: 8 nM
inhibition of AN3CA tumor growth [26]: 62%
IC50 [27]: 5.5 nM
IC50 [28]: > 100 nM
GI50 [29]: 0.5 µM
frequency of mutated subclones [30]: 33.1%
